# Laboratory results: paper PMC6133161, “Thiazoles with cyclopropyl fragment as antifungal, anticonvulsant, and anti-Toxoplasma gondii agents: synthesis, toxicity evaluation, and molecular docking study” (Medicinal Chemistry Research, 2018)
# Where two headings read alike, the source gives them in different places.
# Tests used:
# L929 and VERO cell lines = experiment: MTT cytotoxicity assay; type: cell-based, mouse; African green monkey; details: 24 h, higher concentrations not reached due to limited solubility
# [1] = tested on: Toxoplasma gondii RH strain; experiment: [3H]-uracil incorporation assay in VERO host cells; details: Toxoplasma gondii, Vero; for activity at 0.98 µg/mL / activity at 1.95 µg/mL / activity at 3.91 µg/mL / activity at 7.81 µg/mL / activity at 15.63 µg/mL / activity at 20 µg/mL / activity at 25 µg/mL / activity at 31.25 µg/mL: read-out: Proliferation of Toxoplasma gondii RH strain ± SD; for IC50: read-out: IC50 anti-Tg
# [2] = tested on: Candida albicans ATCC 2091; experiment: Broth microdilution MIC/MFC, reference strain; type: cell-based; details: C. albicans ATCC 2091
# Text: (§1) The examined compounds 3a–3j were screened in vitro for antibacterial and antifungal activities using the broth microdilution method according to European Committee on Antimicrobial Susceptibility Testing (EUCAST) (EUCAST [2003]) and Clinical and Laboratory Standards Institute guidelines (CLSI [2012]) against reference strains of microorganisms from American Type Culture Collection (ATCC), including fungi belonging to yeasts (Candida albicans ATCC 2091, Candida albicans ATCC 10231, Candida parapsilosis ATCC 22019 and Candida krusei ATCC 14243).
# (§2) In the study of antifungal activity of the compounds 3a–3j, 15 clinical strains of different species of yeasts from Candida species, namely C. albicans, C. dubliniensis C. famata, C. inconspicua, C. krusei, C. tropicalis, C. glabrata, C. lambica, C. kefyr, C. lusitaniae, C. parapsilosis, C. guilliermondii, C. lusitaniae, C. pulcherrima and C. sake were also used. These fungi were isolated by the author (from Department of Pharmaceutical Microbiology of Medical University in Lublin, Poland) from different clinical materials, e.g., from upper respiratory tract of hospitalized patients including cancer patients (i.e., with non-small cell lung cancer or hematological malignancies). Some patients were after pre-operative or post-operative chemotherapy (treated with etoposide or cis-platin given in doses according to the standard procedures), patients with chronic hepatitis C (undergoing peginterferon and ribavirin therapy or without antiviral therapy), patients with diabetes, elderly people, aged of 65 years old or older, staying in close population, such as a care centre and people staying outside the home care. The Ethical Committee of the Medical University of Lublin approved the study protocol (No. KE-0254/75/2011). The isolates were identified by standard diagnostic methods—biochemical microtest, e.g., API 20C AUX, ID 32C, API Candida (bioMérieux) on the basis of assimilation of various substrates. All the used microbial cultures were first subcultured on nutrient agar or Sabouraud agar for bacteria and fungi, respectively. The RPMI 1640 with MOPS (for fungi) were inoculated with the suspensions of fungal species. Microbial suspensions were prepared in sterile saline (0.85% NaCl) with an optical density of 0.5 McFarland standard scale (Wiegand et al. [2008]). Samples containing examined compounds were dissolved in dimethyl sulfoxide (DMSO). Furthermore, fungal suspensions were put onto Petri dishes with solid media containing 2 mg/ml of the tested compounds followed incubation under appropriate conditions. The inhibition of microbial growth was judged by comparison with a control culture prepared without any sample tested. Nystatin (Sigma) was used as a reference antifungal compound. Subsequently MIC minimal inhibitory concentration (MIC) of the compounds was examined by the microdilution broth method, using their two-fold dilutions in RPMI 1640 broth with MOPS prepared in 96-well polystyrene plates. Final concentrations of the compounds ranged from 1000 to 0.0038 µg/ml. Microbial suspensions were prepared in sterile saline with an optical density of 0.5 McFarland standard. Next fungal suspension was added per each well containing broth and various concentrations of the examined compounds. After incubation, the MIC was assessed spectrophotometric as the lowest concentration of the samples showing complete fungal growth inhibition. Appropriate DMSO, growth and sterile controls were carried out. The medium with no tested substances was used as a control (Wiegand et al. [2008]). The minimal fungicidal concentration (MFC) are defined as the lowest concentration of the compounds that is required to kill a particular fungal species. MFC was determined by removing the culture using for MIC determinations from each well and spotting onto appropriate agar medium. The plates were incubated. The lowest compounds concentration with no visible growth observed was assessed as a fungicidal concentration. […]
# [3] = tested on: Candida krusei ATCC 14243; experiment: Broth microdilution MIC/MFC, reference strain; type: cell-based; details: C. krusei ATCC 14243
# Text: as §1, §2
# [4] = tested on: Candida albicans ATCC 10231; experiment: Broth microdilution MIC/MFC, reference strain; type: cell-based; details: C. albicans ATCC 10231
# Text: as §1, §2
# [5] = tested on: Candida parapsilosis ATCC 22019; experiment: Broth microdilution MIC/MFC, reference strain; type: cell-based; details: C. parapsilosis ATCC 22019
# Text: as §1, §2
# [6] = Candida albicans, ATCC2091, read-out: MFC
# [7] = Candida albicans, ATCC2091, read-out: MIC
# [8] = Pichia kudriavzevii, ATCC14243, read-out: MFC
# [9] = Pichia kudriavzevii, ATCC14243, read-out: MIC
# [10] = Candida albicans, ATCC10231, read-out: MFC
# [11] = Candida albicans, ATCC10231, read-out: MIC
# [12] = Lodderomyces parapsilosis, ATCC22019, read-out: MFC
# [13] = Lodderomyces parapsilosis, ATCC22019, read-out: MIC
SMILES,"MIC [2, 7] [mg/L]","MIC [3, 9] [mg/L]","MIC [4, 11] [mg/L]","MIC [5, 13] [mg/L]",highest possible non-cytotoxic concentration (L929 and VERO cell lines) [µg/mL],activity at 0.98 µg/mL [1] [%],activity at 1.95 µg/mL [1] [%],activity at 3.91 µg/mL [1] [%],"MFC [2, 6] [mg/L]","MFC [3, 8] [mg/L]","MFC [4, 10] [mg/L]","MFC [5, 12] [mg/L]",activity at 7.81 µg/mL [1] [%],activity at 15.63 µg/mL [1] [%],activity at 20 µg/mL [1] [%],activity at 25 µg/mL [1] [%],activity at 31.25 µg/mL [1] [%],other results
"FC(F)(F)c1ccc(-c2csc(N/N=C/C3CC3)n2)cc1 [Compound 3e, (E)-2-(2-(Cyclopropylmethylene)hydrazinyl)-4-(4-(trifluoromethyl)phenyl)thiazole]",–,–,–,–,3.91,94.4 ± 6.92,100 ± 2.25,110 ± 4.37,–,–,–,–,–,–,–,–,–,–
"C[C@@H]1[C@H](O)[C@@H](C)/C=C/C=C/CC/C=C/C=C/C=C/C=C/C(O[C@H]2O[C@H](C)[C@@H](O)[C@H](N)[C@@H]2O)CC2O[C@](O)(CC(O)C(O)CCC(O)CC(O)CC(O)CC(=O)O[C@H]1C)CC(O)C2C(=O)O (some centres unmarked) [Nystatin, reference compound]",–,–,–,–,–,–,–,–,–,–,–,–,–,–,–,–,–,MFC [2]: 0.24 mg/L; MFC/MIC [2]: 1; MIC [2]: 0.24 mg/L; MFC [3]: 0.24 mg/L; MFC/MIC [3]: 1; MIC [3]: 0.24 mg/L; MFC [4]: 0.48 mg/L; MFC/MIC [4]: 1; MIC [4]: 0.48 mg/L; MFC [5]: 0.48 mg/L; MFC/MIC [5]: 2; MIC [5]: 0.24 mg/L
"Fc1ccc(-c2csc(N/N=C/C3CC3)n2)cc1 [Compound 3a, (E)-2-(2-(Cyclopropylmethylene)hydrazinyl)-4-(4-fluorophenyl)thiazole]",1.95,3.91,1.95,1.95,31.25,95.4 ± 2.41,97.9 ± 7.49,96.16 ± 0.61,3.91,15.6,15.6,3.91,84.89 ± 0.78,49.2 ± 3.59,45.6 ± 5.64,42.2 ± 0.91,28.2 ± 5.7,IC50 [1]: 18.1 mg/L
"COc1ccc(-c2csc(N/N=C/C3CC3)n2)cc1 [Compound 3f, (E)-2-(2-(Cyclopropylmethylene)hydrazinyl)-4-(4-methoxyphenyl)thiazole]",0.24,0.48,0.015,0.48,31.25,89.61 ± 0.77,84.2 ± 5.47,79.2 ± 6.07,1.95,0.98,0.03,3.91,86.2 ± 6.35,63 ± 4.88,58.5 ± 3.72,57.8 ± 6.09,68 ± 5.37,–
"Brc1ccc(-c2csc(N/N=C/C3CC3)n2)cc1 [Compound 3b, (E)-4-(4-Bromophenyl)-2-(2-(cyclopropylmethylene)hydrazinyl)thiazole]",0.12,0.24,0.06,0.48,7.81,85.8 ± 10.6,99.3 ± 6.08,107 ± 10.2,0.98,0.98,0.24,1.95,111 ± 10.1,–,–,–,–,–

# Second part, led by results:
"MIC [2, 7] [mg/L]","MIC [3, 9] [mg/L]","MIC [4, 11] [mg/L]","MIC [5, 13] [mg/L]",SMILES,highest possible non-cytotoxic concentration (L929 and VERO cell lines) [µg/mL],activity at 0.98 µg/mL [1] [%],activity at 1.95 µg/mL [1] [%],activity at 3.91 µg/mL [1] [%],"MFC [2, 6] [mg/L]","MFC [3, 8] [mg/L]","MFC [4, 10] [mg/L]","MFC [5, 12] [mg/L]",activity at 7.81 µg/mL [1] [%],activity at 15.63 µg/mL [1] [%],activity at 20 µg/mL [1] [%],activity at 25 µg/mL [1] [%],activity at 31.25 µg/mL [1] [%],other results
0.12,0.12,0.12,0.48,"Clc1ccc(-c2csc(N/N=C/C3CC3)n2)cc1 [Compound 3c, (E)-4-(4-Chlorophenyl)-2-(2-(cyclopropylmethylene)hydrazinyl)thiazole]",7.81,106.78 ± 0.02,108 ± 4.34,114 ± 6.65,0.48,0.98,0.24,1.95,–,–,–,–,–,–
1.95,7.81,0.48,3.91,"Fc1ccc(-c2csc(N/N=C/C3CC3)n2)c(F)c1 [Compound 3g, (E)-2-(2-(Cyclopropylmethylene)hydrazinyl)-4-(2,4-difluorophenyl)thiazole]",15.63,105 ± 9.98,91.8 ± 1.12,81.4 ± 1.6,1.95,31.2,0.98,3.91,78.6 ± 4.6,58.1 ± 2.94,60.9 ± 3.81,–,–,–
0.98,0.48,0.24,0.98,"[N-]=[N+]=Nc1ccc(-c2csc(N/N=C/C3CC3)n2)cc1 [Compound 3i, (E)-4-(4-Azidophenyl)-2-(2-(cyclopropylmethylene)hydrazinyl)thiazole]",15.63,95.3 ± 10.6,93.3 ± 4.67,105 ± 2.24,3.91,1.95,1.95,7.81,92.2 ± 3.71,98.8 ± 4.29,–,–,–,–
1.95,0.98,0.48,3.91,"N#Cc1ccc(-c2csc(N/N=C/C3CC3)n2)cc1 [Compound 3h, (E)-4-(2-(2-(Cyclopropylmethylene)hydrazinyl)thiazol-4-yl)benzonitrile]",31.25,86.1,83.3 ± 3.9,79.6 ± 1.15,3.91,1.95,1.95,3.91,75.5 ± 4.89,65 ± 3.28,56.6 ± 1,53.9 ± 6.64,43.81 ± 0.06,IC50 [1]: 30.1 mg/L
0.12,0.06,0.06,0.24,"Cc1ccc(-c2csc(N/N=C/C3CC3)n2)cc1 [Compound 3d, (E)-2-(2-(Cyclopropylmethylene)hydrazinyl)-4-p-tolylthiazole]",31.25,88.7 ± 2.63,100 ± 4.54,93.4 ± 5.18,1.95,0.48,0.24,0.98,90.4 ± 3.29,84.41 ± 0.08,–,–,–,–
3.91,0.98,0.48,3.91,"O=[N+]([O-])c1ccc(-c2csc(N/N=C/C3CC3)n2)cc1 [Compound 3j, (E)-2-(2-(Cyclopropylmethylene)hydrazinyl)-4-(4-nitrophenyl)thiazole]",31.25,91 ± 2.47,94.44 ± 0.34,97.1 ± 4.63,7.81,3.91,1.95,31.2,96.7 ± 3.29,60 ± 7.86,58.8 ± 1.67,40.3 ± 1.53,35.1 ± 424,IC50 [1]: 21.8 mg/L
